pIC50: −log10 of the molar value.
Tested on: 633275-114-R-J1-PDC complex spheroids, viability
Assay: Anticancer human tumor 633275-114-R-J1-PDC patient-derived endometrial adenocarcinoma cell line growth inhibition [GQUAD]
Conditions: for pIC50: curve of first compound; for viability, T/C: stronger effect = lower value; active = viability on the fitted dose curve at most 10% of control; inactive = the rest
Summary of the method: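 Tumor cells were grown as complex spheroids with HUVEC endothelial cells and mesenchymal stem cells as stroma. G-quadruplex stabilizers were combined with targeted agents over half-log dilutions from near the clinical Cmax, or from 10 microM.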

[1] = second compound 0.0316 µM, first compound 0.0316 µM
[2] = second compound 0.0316 µM, first compound 0.1 µM
[3] = second compound 0.0316 µM, first compound 0.316 µM
[4] = second compound 0.0316 µM, first compound 1 µM
[5] = second compound 0.0316 µM, first compound 3.16 µM
[6] = second compound 0.0316 µM, first compound 10 µM
[7] = second compound 0.1 µM, first compound 0.0316 µM
[8] = second compound 0.1 µM, first compound 0.1 µM
[9] = second compound 0.1 µM, first compound 0.316 µM
[10] = second compound 0.1 µM, first compound 1 µM
[11] = second compound 0.1 µM, first compound 3.16 µM
[12] = second compound 0.1 µM, first compound 10 µM
[13] = second compound 0.316 µM, first compound 0.0316 µM
[14] = second compound 0.316 µM, first compound 0.1 µM
[15] = second compound 0.316 µM, first compound 0.316 µM
[16] = second compound 0.316 µM, first compound 1 µM
[17] = second compound 0.316 µM, first compound 3.16 µM
[18] = second compound 0.316 µM, first compound 10 µM
[19] = second compound 1 µM, first compound 0.0316 µM
[20] = second compound 1 µM, first compound 0.1 µM
[21] = second compound 1 µM, first compound 0.316 µM
[22] = second compound 1 µM, first compound 1 µM
[23] = second compound 1 µM, first compound 3.16 µM
[24] = second compound 1 µM, first compound 10 µM
[25] = second compound 3.16 µM, first compound 0.0316 µM
[26] = second compound 3.16 µM, first compound 0.1 µM
[27] = second compound 3.16 µM, first compound 0.316 µM
[28] = second compound 3.16 µM, first compound 1 µM
[29] = second compound 3.16 µM, first compound 3.16 µM
[30] = second compound 3.16 µM, first compound 10 µM
[31] = second compound 10 µM, first compound 0.0316 µM
[32] = second compound 10 µM, first compound 0.1 µM
[33] = second compound 10 µM, first compound 0.316 µM
[34] = second compound 10 µM, first compound 1 µM
[35] = second compound 10 µM, first compound 3.16 µM
[36] = second compound 10 µM, first compound 10 µM
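Note: spheroids exposed to the agents for seven days.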
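Throughout, for viability, T/C: percent of DMSO vehicle control viability which is 100%.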

CC(=O)O[C@H]1C(=O)[C@@]2(C)[C@H]([C@H](OC(=O)c3ccccc3)[C@]3(O)C[C@H](OC(=O)[C@H](O)[C@@H](NC(=O)c4ccccc4)c4ccccc4)C(C)=C1C3(C)C)[C@]1(OC(C)=O)CO[C@@H]1C[C@@H]2O + Cc1[nH]c2ccc(F)cc2c1-c1nc2c3cccnc3c3ncccc3c2[nH]1
inactive: viability, T/C [1] 50.9% | viability, T/C [2] 25.6% | viability, T/C [3] 20.8% | viability, T/C [4] 19.7% | viability, T/C [5] 20.6% | viability, T/C [6] 18.9% | viability, T/C [7] 45.3% | viability, T/C [8] 25.8% | viability, T/C [9] 20.2% | viability, T/C [10] 18.4% | viability, T/C [11] 19.1% | viability, T/C [12] 18.9% | viability, T/C [13] 47.8% | viability, T/C [14] 22.1% | viability, T/C [15] 19.9% | viability, T/C [16] 19.5% | viability, T/C [17] 19.4% | viability, T/C [18] 19.1% | viability, T/C [19] 41% | viability, T/C [20] 21.3% | viability, T/C [21] 19.8% | viability, T/C [22] 17.7% | viability, T/C [23] 18.2% | viability, T/C [24] 17.2% | viability, T/C [25] 38.2% | viability, T/C [26] 17.7% | viability, T/C [27] 16.3% | viability, T/C [28] 16.5% | viability, T/C [29] 19.4% | viability, T/C [30] 17.7% | viability, T/C [31] 36.8% | viability, T/C [32] 18.8% | viability, T/C [33] 17.5% | viability, T/C [34] 18.8% | viability, T/C [35] 18.4% | viability, T/C [36] 17.2%
> 7.50: pIC50 (second compound 0.1 µM) | pIC50 (second compound 0.316 µM) | pIC50 (second compound 1 µM) | pIC50 (second compound 3.16 µM) | pIC50 (second compound 10 µM)
7.48: pIC50 (second compound 0.0316 µM)

CC[C@@]1(O)C(=O)OCc2c1cc1n(c2=O)Cc2cc3c(CN(C)C)c(O)ccc3nc2-1 + Cc1[nH]c2ccc(F)cc2c1-c1nc2c3cccnc3c3ncccc3c2[nH]1
inactive: viability, T/C (second compound 0.0316 µM, first compound 0.000999 µM) 98.6% | viability, T/C (second compound 0.0316 µM, first compound 0.00316 µM) 91.9% | viability, T/C (second compound 0.0316 µM, first compound 0.00999 µM) 86.8% | viability, T/C [1] 69.6% | viability, T/C (second compound 0.0316 µM, first compound 0.0999 µM) 43.9% | viability, T/C [3] 36.9% | viability, T/C (second compound 0.1 µM, first compound 0.000999 µM) 93.8% | viability, T/C (second compound 0.1 µM, first compound 0.00316 µM) 93.6% | viability, T/C (second compound 0.1 µM, first compound 0.00999 µM) 87.7% | viability, T/C [7] 73.4% | viability, T/C (second compound 0.1 µM, first compound 0.0999 µM) 45.3% | viability, T/C [9] 35.8% | viability, T/C (second compound 0.316 µM, first compound 0.000999 µM) 94% | viability, T/C (second compound 0.316 µM, first compound 0.00316 µM) 99.1% | viability, T/C (second compound 0.316 µM, first compound 0.00999 µM) 88.2% | viability, T/C [13] 71.2% | viability, T/C (second compound 0.316 µM, first compound 0.0999 µM) 41.8% | viability, T/C [15] 36.5% | viability, T/C (second compound 1 µM, first compound 0.000999 µM) 90.4% | viability, T/C (second compound 1 µM, first compound 0.00316 µM) 91.8% | viability, T/C (second compound 1 µM, first compound 0.00999 µM) 79.3% | viability, T/C [19] 68% | viability, T/C (second compound 1 µM, first compound 0.0999 µM) 41.9% | viability, T/C [21] 36.3% | viability, T/C (second compound 3.16 µM, first compound 0.000999 µM) 71.7% | viability, T/C (second compound 3.16 µM, first compound 0.00316 µM) 70.4% | viability, T/C (second compound 3.16 µM, first compound 0.00999 µM) 69.1% | viability, T/C [25] 56.5% | viability, T/C (second compound 3.16 µM, first compound 0.0999 µM) 37.1% | viability, T/C [27] 33.2% | viability, T/C (second compound 10 µM, first compound 0.000999 µM) 66.5% | viability, T/C (second compound 10 µM, first compound 0.00316 µM) 74.4% | viability, T/C (second compound 10 µM, first compound 0.00999 µM) 71% | viability, T/C [31] 54.6% | viability, T/C (second compound 10 µM, first compound 0.0999 µM) 36.5% | viability, T/C [33] 29.7%
7.14: pIC50 (second compound 1 µM)
7.13: pIC50 (second compound 0.316 µM)
7.08: pIC50 (second compound 0.1 µM)
7.10: pIC50 (second compound 0.0316 µM)
7.33: pIC50 (second compound 3.16 µM)
7.36: pIC50 (second compound 10 µM)

COc1cc(C2c3cc4c(cc3C(OC3OC5COC(C)OC5C(O)C3O)C3COC(=O)C23)OCO4)cc(OC)c1O (stereo unspecified) + Cc1[nH]c2ccc(F)cc2c1-c1nc2c3cccnc3c3ncccc3c2[nH]1
6.39: pIC50 (second compound 0.1 µM)
6.45: pIC50 (second compound 1 µM)
inactive: viability, T/C [1] 88.3% | viability, T/C [2] 67.3% | viability, T/C [3] 52.6% | viability, T/C [4] 41.9% | viability, T/C [5] 40% | viability, T/C [6] 30.4% | viability, T/C [7] 87.8% | viability, T/C [8] 72.5% | viability, T/C [9] 50.1% | viability, T/C [10] 41.7% | viability, T/C [11] 39.2% | viability, T/C [12] 30.7% | viability, T/C [13] 85.5% | viability, T/C [14] 69.5% | viability, T/C [15] 51% | viability, T/C [16] 42.2% | viability, T/C [17] 38.3% | viability, T/C [18] 31.3% | viability, T/C [19] 86.5% | viability, T/C [20] 65.2% | viability, T/C [21] 51.6% | viability, T/C [22] 40.8% | viability, T/C [23] 36.1% | viability, T/C [24] 30.8% | viability, T/C [25] 64.2% | viability, T/C [26] 56.1% | viability, T/C [27] 41.7% | viability, T/C [28] 36.6% | viability, T/C [29] 37.3% | viability, T/C [30] 27.8% | viability, T/C [31] 65.5% | viability, T/C [32] 56.4% | viability, T/C [33] 41.8% | viability, T/C [34] 37.4% | viability, T/C [35] 33.4% | viability, T/C [36] 28.4%
6.80: pIC50 (second compound 3.16 µM)
6.37: pIC50 (second compound 0.316 µM)
6.35: pIC50 (second compound 0.0316 µM)
6.77: pIC50 (second compound 10 µM)
